Reference: publication PMC7181660, “A novel specific PERK activator reduces toxicity and extends survival in Huntington's disease models” (Scientific Reports, 2020)

How the values were obtained:
panel of 391 kinases [1] = biological target: panel of 391 kinases (Homo sapiens, UniProt P45985); test: biochemical; format: biochemical; settings: MKK4, MK-28 1 µM, ATP 1 µM
panel of 391 kinases [2] = biological target: panel of 391 kinases (Homo sapiens, UniProt Q9Y572); test: biochemical; format: biochemical; settings: RIPK3, MK-28 1 µM, ATP 1 µM
panel of 391 kinases [3] = biological target: panel of 391 kinases (Homo sapiens, UniProt P08631); test: biochemical; format: biochemical; settings: HCK, MK-28 1 µM, ATP 1 µM
panel of 391 kinases [4] = biological target: panel of 391 kinases (Homo sapiens, UniProt Q9NY57); test: biochemical; format: biochemical; settings: STK32B/YANK2, MK-28 1 µM, ATP 1 µM
panel of 391 kinases [5] = biological target: panel of 391 kinases (Homo sapiens, UniProt P52333); test: biochemical; format: biochemical; settings: JAK3, MK-28 1 µM, ATP 1 µM
panel of 391 kinases [6] = biological target: panel of 391 kinases (Homo sapiens, UniProt Q96SB4); test: biochemical; format: biochemical; settings: SRPK1, MK-28 1 µM, ATP 1 µM
panel of 391 kinases [7] = biological target: panel of 391 kinases (Homo sapiens, UniProt Q8TF76); test: biochemical; format: biochemical; settings: Haspin, MK-28 1 µM, ATP 1 µM
GADD34 mRNA = GADD34 mRNA by qPCR in STHdh^Q7/7 and STHdh^Q111/111 cells; format: cell-based, murine; settings: both cell types, qPCR vs GAPDH
Procedure: (§1) Total cell RNA was extracted with TRIzol reagent (Invitrogen) according to the manufacturer's instructions. Reverse transcription (RT) was performed with QuantaBio qScript cDNA synthesis kit. Real-time qPCR was carried out using a CFX Connect Real-Time PCR Detection System (BioRad) and the amplifications were done using the SYBR Green PCR Master Mix (pcrbio). Reactions were run in triplicates in three independent experiments. Housekeeping gene GAPDH was used as an internal control to normalize the variability of expression levels.

HMOX1 mRNA = HMOX1 mRNA (downstream target of NRF2-P) by qPCR; format: cell-based, murine; settings: STHdh^Q7/7 and STHdh^Q111/111 cells
Procedure: as §1
Suppl. Fig. S5. NRF2 activation but not involvement in cell protection by MK-28. A)
Scheme of NRF2 activation by PERK. B) qPCR of HMOX1, a downstream target of NR F2.
Medians +- interquartile range of 3 independent experiments . P values of STHdhQ7/7 MK 5µM […]
presence of Tun and the indicated concentrations of MK-28, plus increasing concentrations of the NRF2 inhibitor ML385. Average of 3 independent experiments +-SD. D) Apoptosis of STHdhQ111/111 cells treated only with increasing concentrations of ML385. Average of 3 independent experiments +-SD.
(1 picture or pasted object on this page, not shown here)

PERK (EIF2AK3) = biological target: T1, PERK (EIF2AK3) (Homo sapiens, UniProt Q9NZJ5); test: In vitro HotSpot kinase assay on isolated PERK; format: biochemical; settings: isolated PERK, 1 μM ATP; read-out: EC50 of PERK activation
T1 construct: GST; purchased Life technologies, Carlsbad, CA; host or cells: insect cells
T1 sequence (Q9NZJ5 536-1116): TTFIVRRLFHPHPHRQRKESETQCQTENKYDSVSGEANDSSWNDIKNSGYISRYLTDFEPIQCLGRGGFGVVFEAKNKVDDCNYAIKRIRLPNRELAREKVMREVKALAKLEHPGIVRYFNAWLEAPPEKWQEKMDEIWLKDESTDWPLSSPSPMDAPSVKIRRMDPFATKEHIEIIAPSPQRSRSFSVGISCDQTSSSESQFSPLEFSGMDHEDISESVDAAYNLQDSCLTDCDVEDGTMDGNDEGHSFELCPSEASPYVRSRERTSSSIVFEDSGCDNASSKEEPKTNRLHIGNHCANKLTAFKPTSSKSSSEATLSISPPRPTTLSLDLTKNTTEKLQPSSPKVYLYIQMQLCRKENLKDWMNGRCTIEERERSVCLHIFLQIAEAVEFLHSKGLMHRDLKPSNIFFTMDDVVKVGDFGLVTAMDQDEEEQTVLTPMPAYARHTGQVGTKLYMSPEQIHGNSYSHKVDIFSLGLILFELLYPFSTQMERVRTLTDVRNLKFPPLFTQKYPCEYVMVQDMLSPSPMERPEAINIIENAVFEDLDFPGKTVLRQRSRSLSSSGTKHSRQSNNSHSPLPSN
Procedure: In vitro kinase assays with purified components and full kinase panel analysis was done at Reaction Biology Corp. (Malvern, PA, USA) using the HotSpot Kinase Assay. Reactions were performed for 20 min at room temp. using ^33P-ATP (Specific activity 10 μCi/μl) with 1 μM total ATP, 20 μM substrate and kinases in the nanomolar range in 20 mM Hepes (pH 7.5), 10 mM MgCl2, 1 mM EGTA, 0.02% Brij35, 0.02 mg/ml BSA, 0.1 mM Na3VO4, 2 mM DTT, 1% DMSO and other required factors depending on the assayed kinase.

[8] = read-out: % Enzyme Activity (relative to DMSO controls)

CN(/N=C\c1ccc(O)c(O)c1)c1nc(-c2ccccc2)cc(-c2ccccc2)n1 [MK-28]
% Enzyme Activity (relative to DMSO controls) (panel of 391 kinases [1]): 102.88%
remaining activity at 1 µM (panel of 391 kinases [1]; [8]): 103%
% Enzyme Activity (relative to DMSO controls) (panel of 391 kinases [2]): 100.16%
remaining activity at 1 µM (panel of 391 kinases [2]; [8]): 101%
% Enzyme Activity (relative to DMSO controls) (panel of 391 kinases [3]): 73.97%
remaining activity at 1 µM (panel of 391 kinases [3]; [8]): 75.6%
% Enzyme Activity (relative to DMSO controls) (panel of 391 kinases [4]): 100.71%
remaining activity at 1 µM (panel of 391 kinases [4]; [8]): 101%
% Enzyme Activity (relative to DMSO controls) (panel of 391 kinases [5]): 104.48%
remaining activity at 1 µM (panel of 391 kinases [5]; [8]): 106%
% Enzyme Activity (relative to DMSO controls) (panel of 391 kinases [6]): 103.25%
remaining activity at 1 µM (panel of 391 kinases [6]; [8]): 104%
% Enzyme Activity (relative to DMSO controls) (panel of 391 kinases [7]): 102.02%
remaining activity at 1 µM (panel of 391 kinases [7]; [8]): 116%
increase of GADD34 mRNA levels (GADD34 mRNA): ≤ 5 fold
HMOX1 mRNA levels (HMOX1 mRNA): upregulation
EC50 (PERK (EIF2AK3)): 490 nM
